PubChem BioAssay (NCI)
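The compound was tested at five concentrations on cells cultured in 96-well plates, with a 48-hour exposure period. The concentration for 50% growth inhibition is given as GI50. Definition used: TGI = concentration required for complete inhibition of growth.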

Tests used:
Assay in all cases: inhibition of tumour cell growth, NCI panel, 48 h
SR leukemia = tested on: SR leukemia
SF-539 CNS = tested on: SF-539 CNS
CAKI-1 renal = tested on: CAKI-1 renal
MDA-MB-231 breast = tested on: MDA-MB-231 breast
M14 melanoma = tested on: M14 melanoma
RPMI-8226 leukemia = tested on: RPMI-8226 leukemia
HS 578T breast = tested on: HS 578T breast
OVCAR-4 ovarian = tested on: OVCAR-4 ovarian
A498 renal = tested on: A498 renal
SN12C renal = tested on: SN12C renal
HT29 colon = tested on: HT29 colon
EKVX NSCLC = tested on: EKVX NSCLC
NCI-H23 lung = tested on: NCI-H23 lung
SNB-19 CNS = tested on: SNB-19 CNS
UACC-257 melanoma = tested on: UACC-257 melanoma
SK-MEL-28 melanoma = tested on: SK-MEL-28 melanoma
PC-3 prostate = tested on: PC-3 prostate
NCI/ADR-RES ovarian = tested on: NCI/ADR-RES ovarian
HCC-2998 colon = tested on: HCC-2998 colon
LOX IMVI melanoma = tested on: LOX IMVI melanoma
OVCAR-5 ovarian = tested on: OVCAR-5 ovarian
SK-OV-3 ovarian = tested on: SK-OV-3 ovarian
K-562 leukemia = tested on: K-562 leukemia
OVCAR-8 ovarian = tested on: OVCAR-8 ovarian
MDA-MB-435 = tested on: MDA-MB-435
HOP-92 NSCLC = tested on: HOP-92 NSCLC
NCI-H522 lung = tested on: NCI-H522 lung
786-0 renal = tested on: 786-0 renal
MOLT-4 leukemia = tested on: MOLT-4 leukemia
A549 NSCLC = tested on: A549 NSCLC
SK-MEL-2 melanoma = tested on: SK-MEL-2 melanoma
SF-295 CNS = tested on: SF-295 CNS
UO-31 renal = tested on: UO-31 renal
MCF7 breast = tested on: MCF7 breast
NCI-H226 lung = tested on: NCI-H226 lung
U251 CNS = tested on: U251 CNS
NCI-H460 lung = tested on: NCI-H460 lung
RXF 393 renal = tested on: RXF 393 renal
IGROV1 ovarian = tested on: IGROV1 ovarian
HCT-15 colon = tested on: HCT-15 colon
DU-145 prostate = tested on: DU-145 prostate
UACC-62 melanoma = tested on: UACC-62 melanoma
MALME-3M melanoma = tested on: MALME-3M melanoma
SW-620 colon = tested on: SW-620 colon
SK-MEL-5 melanoma = tested on: SK-MEL-5 melanoma
BT-549 breast = tested on: BT-549 breast
SNB-75 CNS = tested on: SNB-75 CNS
HOP-62 NSCLC = tested on: HOP-62 NSCLC
SF-268 CNS = tested on: SF-268 CNS
KM12 colon = tested on: KM12 colon
HL-60(TB) leukemia = tested on: HL-60(TB) leukemia
OVCAR-3 ovarian = tested on: OVCAR-3 ovarian
COLO 205 colon = tested on: COLO 205 colon
TK-10 renal = tested on: TK-10 renal
ACHN renal = tested on: ACHN renal
HCT-116 colon = tested on: HCT-116 colon

Structure (SMILES): COc1ccc(C(=O)c2no[n+]([O-])c2C(=O)c2ccc(OC)cc2)cc1
- GI50 (SR leukemia): 0.726 µM
- TGI (SR leukemia): 3.22 µM
- GI50 (SF-539 CNS): 2.19 µM
- TGI (SF-539 CNS): 4.97 µM
- GI50 (CAKI-1 renal): 1.9 µM
- TGI (CAKI-1 renal): 4 µM
- GI50 (MDA-MB-231 breast): 2.77 µM
- TGI (MDA-MB-231 breast): 8.16 µM
- GI50 (M14 melanoma): 3.5 µM
- TGI (M14 melanoma): 11.7 µM
- GI50 (RPMI-8226 leukemia): 2.06 µM
- TGI (RPMI-8226 leukemia): 4.85 µM
- GI50 (HS 578T breast): 17.8 µM
- TGI (HS 578T breast): 51.4 µM
- GI50 (OVCAR-4 ovarian): 2.36 µM
- TGI (OVCAR-4 ovarian): 6.26 µM
- GI50 (A498 renal): 15.6 µM
- TGI (A498 renal): 29.2 µM
- GI50 (SN12C renal): 9.06 µM
- TGI (SN12C renal): 22.1 µM
- GI50 (HT29 colon): 2.32 µM
- GI50 (EKVX NSCLC): 7.54 µM
- TGI (EKVX NSCLC): 22.5 µM
- GI50 (NCI-H23 lung): 2.94 µM
- TGI (NCI-H23 lung): 8.74 µM
- GI50 (SNB-19 CNS): 42.2 µM
- TGI (SNB-19 CNS): > 100 µM
- GI50 (UACC-257 melanoma): 3.46 µM
- TGI (UACC-257 melanoma): 10.4 µM
- GI50 (SK-MEL-28 melanoma): 9.03 µM
- TGI (SK-MEL-28 melanoma): 22.1 µM
- GI50 (PC-3 prostate): 5.21 µM
- TGI (PC-3 prostate): 16.8 µM
- GI50 (NCI/ADR-RES ovarian): 10.7 µM
- TGI (NCI/ADR-RES ovarian): 28.7 µM
- GI50 (HCC-2998 colon): 17.5 µM
- TGI (HCC-2998 colon): 31.6 µM
- GI50 (LOX IMVI melanoma): 1.14 µM
- TGI (LOX IMVI melanoma): 2.53 µM
- GI50 (OVCAR-5 ovarian): 10.6 µM
- TGI (OVCAR-5 ovarian): 25.7 µM
- GI50 (SK-OV-3 ovarian): 18 µM
- TGI (SK-OV-3 ovarian): 32 µM
- GI50 (K-562 leukemia): 2.36 µM
- TGI (K-562 leukemia): 7.17 µM
- GI50 (OVCAR-8 ovarian): 2.67 µM
- TGI (OVCAR-8 ovarian): 6.6 µM
- GI50 (MDA-MB-435): 6.72 µM
- TGI (MDA-MB-435): 22.9 µM
- GI50 (HOP-92 NSCLC): 1.72 µM
- TGI (HOP-92 NSCLC): 3.96 µM
- GI50 (NCI-H522 lung): 0.205 µM
- TGI (NCI-H522 lung): 0.429 µM
- GI50 (786-0 renal): 2.62 µM
- TGI (786-0 renal): 6.32 µM
- GI50 (MOLT-4 leukemia): 1.93 µM
- TGI (MOLT-4 leukemia): 4.25 µM
- GI50 (A549 NSCLC): 17.2 µM
- TGI (A549 NSCLC): 34.4 µM
- GI50 (SK-MEL-2 melanoma): 6.59 µM
- TGI (SK-MEL-2 melanoma): 23.1 µM
- GI50 (SF-295 CNS): 17.8 µM
- TGI (SF-295 CNS): 34.7 µM
- GI50 (UO-31 renal): 0.588 µM
- TGI (UO-31 renal): 1.17 µM
- GI50 (MCF7 breast): 4.42 µM
- TGI (MCF7 breast): 18.2 µM
- GI50 (NCI-H226 lung): 25.8 µM
- TGI (NCI-H226 lung): > 64.3 µM
- GI50 (U251 CNS): 2.53 µM
- TGI (U251 CNS): 7.07 µM
- GI50 (NCI-H460 lung): 17.2 µM
- TGI (NCI-H460 lung): 33.5 µM
- GI50 (RXF 393 renal): 2.25 µM
- TGI (RXF 393 renal): 5.93 µM
- GI50 (IGROV1 ovarian): 2.3 µM
- TGI (IGROV1 ovarian): 5.53 µM
- GI50 (HCT-15 colon): 3.98 µM
- TGI (HCT-15 colon): 14.9 µM
- GI50 (DU-145 prostate): 14.5 µM
- TGI (DU-145 prostate): 27.6 µM
- GI50 (UACC-62 melanoma): 10.3 µM
- TGI (UACC-62 melanoma): 23.9 µM
- GI50 (MALME-3M melanoma): 0.82 µM
- TGI (MALME-3M melanoma): 3.07 µM
- GI50 (SW-620 colon): 1.89 µM
- TGI (SW-620 colon): 3.42 µM
- GI50 (SK-MEL-5 melanoma): 12.6 µM
- TGI (SK-MEL-5 melanoma): 25.1 µM
- GI50 (BT-549 breast): 4.84 µM
- TGI (BT-549 breast): 17.2 µM
- GI50 (SNB-75 CNS): 3.03 µM
- TGI (SNB-75 CNS): 9.26 µM
- GI50 (HOP-62 NSCLC): 15.2 µM
- TGI (HOP-62 NSCLC): 29.3 µM
- GI50 (SF-268 CNS): 3.11 µM
- TGI (SF-268 CNS): 7.98 µM
- GI50 (KM12 colon): 8.91 µM
- TGI (KM12 colon): 22.4 µM
- GI50 (HL-60(TB) leukemia): 2.08 µM
- TGI (HL-60(TB) leukemia): 4.37 µM
- GI50 (OVCAR-3 ovarian): 1.87 µM
- TGI (OVCAR-3 ovarian): 3.31 µM
- GI50 (COLO 205 colon): 1.77 µM
- TGI (COLO 205 colon): 3.37 µM
- GI50 (TK-10 renal): 1.41 µM
- TGI (TK-10 renal): 2.82 µM
- GI50 (ACHN renal): 1.9 µM
- TGI (ACHN renal): 3.4 µM
- GI50 (HCT-116 colon): 1.69 µM
- TGI (HCT-116 colon): 3.05 µM
